This passage reports Ki results from ChEMBL document CHEMBL1139847, “Carbonic anhydrase inhibitors. DNA cloning, characterization, and inhibition studies of the human secretory isoform VI, a new target for sulfonamide and sulfamate inhibitors” (J Med Chem, 2007).

Assay [1] deals with Carbonic anhydrase 6 (Homo sapiens, UniProt P23280).
The target of assay [2] is Carbonic anhydrase 9 (Homo sapiens, UniProt Q16790).

Chain of Carbonic anhydrase 6 (P23280 whole entry): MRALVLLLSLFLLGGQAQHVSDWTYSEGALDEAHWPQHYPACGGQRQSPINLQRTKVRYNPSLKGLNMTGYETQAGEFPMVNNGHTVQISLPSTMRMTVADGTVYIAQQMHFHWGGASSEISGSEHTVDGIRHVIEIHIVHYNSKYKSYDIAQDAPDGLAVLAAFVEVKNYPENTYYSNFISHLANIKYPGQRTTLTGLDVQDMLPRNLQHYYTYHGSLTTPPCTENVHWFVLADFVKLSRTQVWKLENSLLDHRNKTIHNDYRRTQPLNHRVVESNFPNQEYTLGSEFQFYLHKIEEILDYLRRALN

In assay [1], `NNc1ccccc1S(N)(=O)=O` showed a Ki of 1090 nM.

`Nc1ccc(S(=O)(=O)NCc2ccc(S(N)(=O)=O)cc2)cc1` came in with a Ki in assay [1] of 55 nM. For `Nc1ccc(S(N)(=O)=O)cc1I`, the affinity in assay [1] corresponds to a Ki of 1020 nM.

For the molecule `Nc1ccc(S(=O)(=O)Nc2nnc(S(N)(=O)=O)s2)cc1`, in assay [1], the Ki came out at 73 nM.

Molecule `Nc1nccc(Nc2ccc(S(N)(=O)=O)cc2)n1` displayed a Ki in assay [1] of 86 nM.

Consider `Nc1ccccc1S(N)(=O)=O`, for which the inhibition constant (Ki) in assay [1] was determined as 772 nM.

In assay [1], `Nc1ccc(S(N)(=O)=O)cc1Br` had a Ki of 4680 nM. `Cn1nc(S(N)(=O)=O)sc1=N` gave a Ki in assay [1] of 740 nM. The same measure, in the same setting: as for `NS(=O)(=O)c1ccc(CCO)cc1`, the figure is 4150 nM. `Nc1ccc(S(N)(=O)=O)cc1F`: affinity in assay [1] was put at a Ki of 96 nM. Molecule `NS(=O)(=O)c1ccc(CO)cc1` returned an inhibition constant Ki in assay [1] of 6680 nM. In turn, `Nc1ccc(S(N)(=O)=O)cc1Cl` yielded a Ki in assay [1] of 1100 nM. Still for that read-out and setting: to `Nc1ccc(S(=O)(=O)NCCc2ccc(S(N)(=O)=O)cc2)cc1` belongs 24 nM; to `NNc1ccc(S(N)(=O)=O)cc1`, 1270 nM.

The molecule `NS(=O)(=O)c1ccc(S(=O)(=O)Nc2cccc3c(Cl)c[nH]c23)cc1` returned an inhibitory constant (Ki) in assay [1] of 47 nM.

Turning to `CCN[C@H]1CN(CCCOC)S(=O)(=O)c2sc(S(N)(=O)=O)cc21` [BRINZOLAMIDE], in assay [1], the inhibition constant (Ki) worked out at 0.9 nM. The same measure, in the same setting: to `NS(=O)(=O)c1ccc(C(=O)O)cc1` [CARZENIDE] belongs 887 nM. As for `NCc1ccc(S(N)(=O)=O)cc1` [MAFENIDE], the Ki in assay [1] is 4800 nM. Turning to `Cc1ccc(S(N)(=O)=O)cc1` [P-TOLUENESULFONAMIDE], the Ki was 1580 nM in assay [1] and 460 nM in assay [2]. In assay [1], `Nc1ccc(S(N)(=O)=O)cc1` [SULFANILAMIDE] showed a Ki of 941 nM.

Usually Ki stands for the dissociation constant of the complex between target and ligand, obtained from inhibition or displacement. A lower Ki goes with a stronger hold on the target.
